In patent publication US8557859B2, “Immunomodulatory compositions” (Summit (Wales) Limited, priority 2003, dated 2013):

Columns and labels:
[1] = test system: HSV-1 (SC16); assay: Treatment of murine HSV-1 infection: ear pinna thickness; type: in vivo, BALB/c mice; conditions: result in words; casuarine at both doses (15 and 150 mg/kg i.p.); famciclovir via drinking water 1 mg/ml
[2] = test system: Na^+-dependent D-glucose uptake into ovine intestinal brush border membrane vesicles; assay: Effect on glucose transport (competition assay with labelled D-glucose); type: biochemical
[3] = molecular target: T1, rabbit small intestine sucrase (Oryctolagus cuniculus, UniProt P07768); assay: Inhibition of rabbit small intestine sucrase; type: biochemical; conditions: at a concentration of 700 μM
T1 construct: from tissue; host or cells: rabbit small intestine
T1 sequence (P07768 whole entry): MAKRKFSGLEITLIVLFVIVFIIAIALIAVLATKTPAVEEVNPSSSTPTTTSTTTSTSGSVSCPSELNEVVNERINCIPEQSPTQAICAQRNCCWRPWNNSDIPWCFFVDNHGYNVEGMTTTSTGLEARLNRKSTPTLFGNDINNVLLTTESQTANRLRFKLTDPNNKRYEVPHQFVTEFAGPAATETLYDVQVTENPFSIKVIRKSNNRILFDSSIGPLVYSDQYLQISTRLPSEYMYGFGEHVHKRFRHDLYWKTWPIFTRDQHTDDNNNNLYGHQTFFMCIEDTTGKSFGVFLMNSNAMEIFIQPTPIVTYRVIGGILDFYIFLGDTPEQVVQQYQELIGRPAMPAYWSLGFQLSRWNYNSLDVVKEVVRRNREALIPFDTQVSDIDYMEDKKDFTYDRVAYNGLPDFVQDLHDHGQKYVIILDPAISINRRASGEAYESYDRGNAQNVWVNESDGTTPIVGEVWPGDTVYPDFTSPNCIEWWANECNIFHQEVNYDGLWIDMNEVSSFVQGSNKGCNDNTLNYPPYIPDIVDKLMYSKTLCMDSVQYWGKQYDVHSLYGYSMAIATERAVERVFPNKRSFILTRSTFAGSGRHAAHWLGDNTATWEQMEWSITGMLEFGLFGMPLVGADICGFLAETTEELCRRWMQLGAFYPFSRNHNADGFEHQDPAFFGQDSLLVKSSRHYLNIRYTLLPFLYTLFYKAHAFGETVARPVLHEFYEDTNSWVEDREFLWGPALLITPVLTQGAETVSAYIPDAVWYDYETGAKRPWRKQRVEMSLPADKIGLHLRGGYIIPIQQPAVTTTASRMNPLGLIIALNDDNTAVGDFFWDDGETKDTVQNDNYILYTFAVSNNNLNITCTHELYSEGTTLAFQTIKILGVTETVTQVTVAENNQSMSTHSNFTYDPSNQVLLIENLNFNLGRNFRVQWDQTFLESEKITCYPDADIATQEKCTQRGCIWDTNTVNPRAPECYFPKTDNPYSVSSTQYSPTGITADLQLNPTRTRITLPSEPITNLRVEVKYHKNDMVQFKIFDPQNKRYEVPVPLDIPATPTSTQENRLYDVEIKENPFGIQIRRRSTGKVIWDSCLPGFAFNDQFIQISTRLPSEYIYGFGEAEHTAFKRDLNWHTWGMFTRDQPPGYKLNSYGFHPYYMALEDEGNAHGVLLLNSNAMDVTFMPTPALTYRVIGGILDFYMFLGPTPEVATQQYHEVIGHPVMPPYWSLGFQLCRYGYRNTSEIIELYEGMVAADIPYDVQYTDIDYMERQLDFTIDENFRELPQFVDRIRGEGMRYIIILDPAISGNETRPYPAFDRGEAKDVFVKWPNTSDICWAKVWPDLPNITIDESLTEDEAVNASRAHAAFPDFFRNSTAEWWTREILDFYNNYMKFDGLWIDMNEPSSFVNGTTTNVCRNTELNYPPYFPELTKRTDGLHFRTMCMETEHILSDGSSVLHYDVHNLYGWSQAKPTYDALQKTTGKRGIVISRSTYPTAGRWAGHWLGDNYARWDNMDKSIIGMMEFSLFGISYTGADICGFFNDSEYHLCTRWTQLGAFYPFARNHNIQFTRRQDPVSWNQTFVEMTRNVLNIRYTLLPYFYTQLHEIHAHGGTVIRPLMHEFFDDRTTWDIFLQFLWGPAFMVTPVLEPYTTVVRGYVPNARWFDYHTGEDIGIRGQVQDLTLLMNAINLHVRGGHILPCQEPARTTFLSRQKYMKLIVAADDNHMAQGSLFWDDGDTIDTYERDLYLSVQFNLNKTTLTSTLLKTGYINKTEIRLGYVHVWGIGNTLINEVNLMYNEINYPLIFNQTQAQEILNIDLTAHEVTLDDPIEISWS

[4] = test system: MCF-7 cells; assay: Effect on glycosylation of breast cancer cells; type: cell-based; conditions: MCF-7, 0.75 mM; difference from untreated cells at the 62 and 86 hour time points
Protocol: MCF-7 cells (European Collection of Cell Cultures Ref. 86012803) were taken from liquid nitrogen stock, thawed at room temperature and transferred to 10 ml Dulbeccos Modified Eagle's Medium with Hams F12, 15 mM Hepes and L-glutamine (DMEM: Cambrex Cat. No. BE12-719F) supplemented with 10% v/v foetal calf serum (FCS: BioWest Labs Cat. No. S02755, Lot. No. S1800). The FCS was pre-filtered through a 0.2 μm steril filter.
The cells were then centrifuged at 1,500 rpm in a Centaur bench-top centrifuge and the supernatant removed. The cells were reconstituted in fresh media and seeded into two T75 cm^3 Nunclon tissue culture flasks and allowed to settle overnight at 37° C. in a 5% CO2 incubator. The flasks were wrapped in cling film to prevent cross-contamination and the following day the media was changed to include the antibiotics penicillin and streptomycin as a precautionary measure against infection (at concentrations of 1 mg/cm^3 and 5 mg/cm^3, respectively). […]
The cells were harvested using a non-enzymatic method. At each of the time points the cells were viewed under the inverted light microscope and the morphology evaluated. […] The number of cells was then counted in a haemocytometer and cell viability evaluated by mixing 0.1 cm^3 of each cell suspension with a drop of trypan blue solution. […]
Evaluated using the BioRad protein assay according to the manufacturer's instructions. […]

[5] = test system: α-D-glucosidase; assay: Glycosidase inhibition, α-D-glucosidase (Bacillus); type: biochemical, Bacillus stearothermophilus; conditions: 1 mg/ml
Protocol: (§1) All enzymes were purchased from Sigma, as were the appropriate p-nitrophenyl substrates. Assays were carried out in microtitre plates. Enzymes were assayed in 0.1 M citric acid/0.2M di-sodium hydrogen phosphate (McIlvaine) buffers at the optimum pH for the enzyme. All assays were carried out at 20° C. For screening assays the incubation assay consisted of 10 μl of enzyme solution, 10 μl of inhibitor solution (made up in water) and 50 μl of the appropriate 5 mM p-nitrophenyl substrate (3.57 mM final conc.) made up in McIlvaine buffer at the optimum pH for the enzyme.
(§2) The reactions were stopped with 0.4M glycine (pH 10.4) during the exponential phase of the reaction, which was determined at the beginning of the assay using blanks with water, which were incubated for a range of time periods to measure the reaction rate using 5 mM substrate solution. Endpoint absorbances were read at 405 nm with a Biorad microtitre plate reader (Benchmark). Water was substituted for the inhibitors in the blanks.

[6] = test system: B16-F10 tumour cells; assay: Control of lung metastasis in mice; type: in vivo, Mice (C57/bl6); conditions: 50 mg/kg s/c on days 2 and 4; lungs on day 14
Protocol: Mice (C57/bl6 under i/p ketamine anaesthesia) were challenged i/v (tail vein) with 5×10^4 B16-F10 tumour cells in a final volume of 100 μl per mouse on day 0. Test compounds (50 mg/kg in 200 μl sterile non-pyrogenic saline) were administered s/c (right flank) on days 2 and 4. On day 14 the mice were sacrifices and the lungs dissected and stained in Indian ink solution (150 ml bidistilled water, 30 ml India Ink, 4 drops NH4OH) for 10 minutes then fixed for at least 24 hr in Fakete's solution (90 ml 37% formaldehyde, 900 ml 70% EtOH and 45 ml glacial acetic acid). The metastases in the stained and fixed lungs could then be visualized, counted and photographed.

[7] = test system: β-D-galactosidase; assay: Glycosidase inhibition, β-D-galactosidase; type: biochemical, Bovine liver; conditions: 1 mg/ml; second galactosidase line
Protocol: as §1, §2

OC[C@@H]1[C@@H](O)[C@H](O)[C@H]2[C@H](O)[C@@H](O)CN21 [casuarine (8), (1R,2R,3R,6S,7S,7aR)-3-(hydroxymethyl)-1,2,6,7-tetrahydroxypyrrolizidine] was tested, and the ear thickness response [1] was “produced a reduction in ear thickness”, the “Glucose uptake” value ([2]; initial rate, control 240) was 265 pmol/s/mg and the glucose transport ([2]; result in words) was “slightly stimulated”. For the same compound, the “inhibition of rabbit small intestine sucrase” value [3] was “inhibited”, the “glycan synthesis and/or N-linked glycosylation in breast cancer cells” value [4] was “can inhibit glycan synthesis and/or N-linked glycosylation” and the “% inhibition gluc (Bacillus)” value [5] was 86%. For the same compound, the Metastatic morphology [6] was “Metastasis restricted to apical tip of lung” and the “% inhibition galactosidase” value [7] was 0%.
